In ChEMBL document CHEMBL3885861, “Open TG-GATES”:

Species on record: Rattus norvegicus
Assay: Open TG-GATES - Regimen: Daily Repeat
Assay type: toxicity, organism-based, Sprague-Dawley
Design: regimen Daily Repeat, gender Male, age 6 weeks
Settings: in vivo, po, 500 mg/kg, route gavage, dose level High; for APTT / Bas / Eos / Fbg / Hb / Ht / Lym / MCH / MCHC / MCV / Mono / Neu / PT / Plat / RBC / Ret / WBC: tissue Blood; for KIDNEY_L / KIDNEY_R / KIDNEY_TOTAL: tissue Kidney; for LIVER: tissue Liver; for A/G / ALP / ALT / AST / BUN / CRE / Ca / Cl / DBIL / GLC / IP / K / LDH / Na / PL / RALB / TBIL / TC / TG / TP / gamma-GTP: tissue Plasma

Structure (SMILES): CN1C(=O)CCS(=O)(=O)C1c1ccc(Cl)cc1 (configuration not stated) [CHLORMEZANONE]
- TERMINAL_BW (72 h, time 3 day): 218.1 g
- APTT (72 h, time 3 day): 22.2 s
- Bas (72 h, time 3 day): 0%
- Eos (72 h, time 3 day): 1%
- Fbg (72 h, time 3 day): 285.2 mg/dL
- Hb (72 h, time 3 day): 13.2 g/dL
- Ht (72 h, time 3 day): 38.9%
- Lym (72 h, time 3 day): 75.2%
- MCH (72 h, time 3 day): 21.2 pg
- MCHC (72 h, time 3 day): 33.9%
- MCV (72 h, time 3 day): 62.8 fL
- Mono (72 h, time 3 day): 3.2%
- Neu (72 h, time 3 day): 20.2%
- PT (72 h, time 3 day): 11.4 s
- Plat (72 h, time 3 day): 115.7 x10_4/uL
- RBC (72 h, time 3 day): 620.2 x10_4/ul
- Ret (72 h, time 3 day): 5.3%
- WBC (72 h, time 3 day): 90.9 x10_2/uL
- KIDNEY_L (72 h, time 3 day): 0.9 g
- KIDNEY_R (72 h, time 3 day): 0.9 g
- KIDNEY_TOTAL (72 h, time 3 day): 1.9 g
- LIVER (72 h, time 3 day): 13.5 g
- A/G (72 h, time 3 day): 0.9
- ALP (72 h, time 3 day): 1900.8 IU/L
- ALT (72 h, time 3 day): 60.6 IU/L
- AST (72 h, time 3 day): 77.2 IU/L
- BUN (72 h, time 3 day): 12.6 mg/dL
- CRE (72 h, time 3 day): 0.2 mg/dL
- Ca (72 h, time 3 day): 10.8 mg/dL
- Cl (72 h, time 3 day): 107.2 meq/L
- DBIL (72 h, time 3 day): 0.02 mg/dL
- GLC (72 h, time 3 day): 179.4 mg/dL
- IP (72 h, time 3 day): 6.9 mg/dL
- K (72 h, time 3 day): 4.3 meq/L
- LDH (72 h, time 3 day): 101.4 IU/L
- Na (72 h, time 3 day): 142 meq/L
- PL (72 h, time 3 day): 157.6 mg/dL
- RALB (72 h, time 3 day): 2.6 g/dL
- TBIL (72 h, time 3 day): 0.05 mg/dL
- TC (72 h, time 3 day): 84.6 mg/dL
- TG (72 h, time 3 day): 99.4 mg/dL
- TP (72 h, time 3 day): 5.6 g/dL
- gamma-GTP (72 h, time 3 day): 1.6 IU/L
- TERMINAL_BW ([…], time 7 day): 254.1 g
- TERMINAL_BW ([…], time 14 day): 312.8 g
- TERMINAL_BW ([…], time 28 day): 364.7 g
- APTT ([…], time 7 day): 22 s
- Bas ([…], time 7 day): 0%
- Eos ([…], time 7 day): 0.8%
- Fbg ([…], time 7 day): 341.2 mg/dL
- Hb ([…], time 7 day): 12.6 g/dL
- Ht ([…], time 7 day): 37.3%
- Lym ([…], time 7 day): 70.4%
- MCH ([…], time 7 day): 20.9 pg
- MCHC ([…], time 7 day): 33.9%
- MCV ([…], time 7 day): 61.5 fL
- Mono ([…], time 7 day): 3.2%
- Neu ([…], time 7 day): 24.8%
- PT ([…], time 7 day): 11.5 s
- Plat ([…], time 7 day): 147.1 x10_4/uL
- RBC ([…], time 7 day): 606.6 x10_4/ul
- Ret ([…], time 7 day): 6.9%
- WBC ([…], time 7 day): 116.2 x10_2/uL
- APTT ([…], time 14 day): 24.3 s
- Bas ([…], time 14 day): 0%
- Eos ([…], time 14 day): 0.6%
- Fbg ([…], time 14 day): 314.6 mg/dL
- Hb ([…], time 14 day): 13.4 g/dL
- Ht ([…], time 14 day): 38.7%
- Lym ([…], time 14 day): 76.8%
- MCH ([…], time 14 day): 20.6 pg
- MCHC ([…], time 14 day): 34.8%
- MCV ([…], time 14 day): 59.4 fL
- Mono ([…], time 14 day): 3.6%
- Neu ([…], time 14 day): 18.2%
- PT ([…], time 14 day): 12 s
- Plat ([…], time 14 day): 122.7 x10_4/uL
- RBC ([…], time 14 day): 651.4 x10_4/ul
- Ret ([…], time 14 day): 6.4%
- WBC ([…], time 14 day): 112.6 x10_2/uL
- APTT ([…], time 28 day): 28.5 s
- Bas ([…], time 28 day): 0%
- Eos ([…], time 28 day): 1.2%
- Fbg ([…], time 28 day): 286.4 mg/dL
- Hb ([…], time 28 day): 13 g/dL
- Ht ([…], time 28 day): 37.8%
- Lym ([…], time 28 day): 77%
- MCH ([…], time 28 day): 20.2 pg
- MCHC ([…], time 28 day): 34.5%
- MCV ([…], time 28 day): 58.5 fL
- Mono ([…], time 28 day): 1.8%
- Neu ([…], time 28 day): 19.6%
- PT ([…], time 28 day): 12.6 s
- Plat ([…], time 28 day): 119.4 x10_4/uL
- RBC ([…], time 28 day): 646.6 x10_4/ul
- Ret ([…], time 28 day): 7.6%
- WBC ([…], time 28 day): 126.7 x10_2/uL
- KIDNEY_L ([…], time 7 day): 1 g
- KIDNEY_R ([…], time 7 day): 1 g
- KIDNEY_TOTAL ([…], time 7 day): 2 g
- KIDNEY_L ([…], time 14 day): 1.2 g
- KIDNEY_R ([…], time 14 day): 1.2 g
- KIDNEY_TOTAL ([…], time 14 day): 2.4 g
- KIDNEY_L ([…], time 28 day): 1.3 g
- KIDNEY_R ([…], time 28 day): 1.3 g
- KIDNEY_TOTAL ([…], time 28 day): 2.5 g
- LIVER ([…], time 7 day): 16 g
- LIVER ([…], time 14 day): 19 g
- LIVER ([…], time 28 day): 20.4 g
- A/G ([…], time 7 day): 0.9
- ALP ([…], time 7 day): 1196.8 IU/L
- ALT ([…], time 7 day): 48.2 IU/L
- AST ([…], time 7 day): 59.8 IU/L
- BUN ([…], time 7 day): 16.6 mg/dL
- CRE ([…], time 7 day): 0.2 mg/dL
- Ca ([…], time 7 day): 11.7 mg/dL
- Cl ([…], time 7 day): 106 meq/L
- DBIL ([…], time 7 day): 0.016 mg/dL
- GLC ([…], time 7 day): 202.2 mg/dL
- IP ([…], time 7 day): 7 mg/dL
- K ([…], time 7 day): 4.2 meq/L
- LDH ([…], time 7 day): 96.2 IU/L
- Na ([…], time 7 day): 143.6 meq/L
- PL ([…], time 7 day): 144.8 mg/dL
- RALB ([…], time 7 day): 3 g/dL
- TBIL ([…], time 7 day): 0.032 mg/dL
- TC ([…], time 7 day): 80.6 mg/dL
- TG ([…], time 7 day): 70.2 mg/dL
- TP ([…], time 7 day): 6.3 g/dL
- gamma-GTP ([…], time 7 day): 1.8 IU/L
- A/G ([…], time 14 day): 0.9
- ALP ([…], time 14 day): 1377.8 IU/L
- ALT ([…], time 14 day): 57.2 IU/L
- AST ([…], time 14 day): 62.4 IU/L
- BUN ([…], time 14 day): 16.4 mg/dL
- CRE ([…], time 14 day): 0.2 mg/dL
- Ca ([…], time 14 day): 11.4 mg/dL
- Cl ([…], time 14 day): 106 meq/L
- DBIL ([…], time 14 day): 0.018 mg/dL
- GLC ([…], time 14 day): 195.6 mg/dL
- IP ([…], time 14 day): 7.1 mg/dL
- K ([…], time 14 day): 4.2 meq/L
- LDH ([…], time 14 day): 122.6 IU/L
- Na ([…], time 14 day): 143.8 meq/L
- PL ([…], time 14 day): 149 mg/dL
- RALB ([…], time 14 day): 2.9 g/dL
- TBIL ([…], time 14 day): 0.084 mg/dL
- TC ([…], time 14 day): 75 mg/dL
- TG ([…], time 14 day): 88 mg/dL
- TP ([…], time 14 day): 6.4 g/dL
- gamma-GTP ([…], time 14 day): 2 IU/L
- A/G ([…], time 28 day): 0.8
- ALP ([…], time 28 day): 1039.2 IU/L
- ALT ([…], time 28 day): 55.2 IU/L
- AST ([…], time 28 day): 59.6 IU/L
- BUN ([…], time 28 day): 16.8 mg/dL
- CRE ([…], time 28 day): 0.3 mg/dL
- Ca ([…], time 28 day): 10.6 mg/dL
- Cl ([…], time 28 day): 106.4 meq/L
- DBIL ([…], time 28 day): 0.014 mg/dL
- GLC ([…], time 28 day): 188.8 mg/dL
- IP ([…], time 28 day): 6.1 mg/dL
- K ([…], time 28 day): 4.2 meq/L
- LDH ([…], time 28 day): 70.8 IU/L
- Na ([…], time 28 day): 143.6 meq/L
- PL ([…], time 28 day): 148 mg/dL
- RALB ([…], time 28 day): 2.9 g/dL
- TBIL ([…], time 28 day): 0.082 mg/dL
- TC ([…], time 28 day): 76 mg/dL
- TG ([…], time 28 day): 67 mg/dL
- TP ([…], time 28 day): 6.5 g/dL
- gamma-GTP ([…], time 28 day): 2.4 IU/L
